Earlier results on two molecules are cited in patent US20240182893A1, “INHIBITION OF FGR REDUCES FIBROSIS” (UNIVERSITY OF PITTSBURGH-OF THE COMMONWEALTH SYSTEM OF …, priority 2021, published 2024).

The data set relates to fibrosis in the lung. Conditions: in vivo; cited from earlier work.

SMILES strings stand for the structures.

In the case of `COC(=O)c1ccc2c(c1)NC(=O)/C2=C(\Nc1ccc(N(C)C(=O)CN2CCN(C)CC2)cc1)c1ccccc1` [nintedanib], the “progression of fibrosis in the lung” value is on record as “slow the progression of fibrosis”.

Take `Cc1ccc(=O)n(-c2ccccc2)c1` [pirfenidone]: the “progression of fibrosis in the lung” value is “slow the progression of fibrosis”.
